Experimental data reported in ChEMBL document CHEMBL4000195, “Design and synthesis of novel 7-aminosubstituted pyrido[2,3-b]pyrazines exhibiting anti-breast cancer activity” (Eur J Med Chem, 2017).
pIC50: −log10 of the molar value. Active and inactive are the calls of the source. The calls are words filed in the database; no cut-off is given here.

Assays:
[1] = biological target: Tyrosine-protein kinase Lck (Homo sapiens) (UniProt P06239); test: Inhibition of human wild type partial length LCK (R207 to P509 residues) expressed in bacterial expression system at 10 uM by KinomeScan method relative to control
[2] = test system: Phosphatidylinositol 4,5-bisphosphate 3-kinase catalytic subunit alpha isoform (Homo sapiens), P42336 [H1047Y]; test: Inhibition of human wild type partial length PIK3CA H1047Y mutant (R108 to N1068 residues) expressed in mammalian expression system at 10 uM by KinomeScan method relative to control
[3] = Tmax in NOD/SCID mouse at 40 mg/kg, ip administered as single dose by LC-MS/MS method; type: ADME, organism-based; conditions: in vivo
[4] = test system: HCC1954; test: Cytotoxicity against human HCC1954 cells at 10 uM by MTT assay; type: functional
[5] = test system: T47D; test: Cytotoxicity against human T47D cells at 10 uM by MTT assay; type: functional
[6] = biological target: Dual specificity tyrosine-phosphorylation-regulated kinase 1A (Rattus norvegicus) (UniProt Q63470); test: Inhibition of rat DYRK1A using myelin basic protein as substrate in presence of [gamma33P]ATP after 30 mins by scintillation counting method
[7] = AUC (0 to 8 hrs) in NOD/SCID mouse at 10 mg/kg, ip administered as single dose by LC-MS/MS method; type: ADME, organism-based; design: dose 10 mg/kg, time < 8 hr, route intraperitoneal; conditions: in vivo
[8] = biological target: RAC-alpha serine/threonine-protein kinase (Homo sapiens) (UniProt P31749); test: Inhibition of human wild type partial length AKT1 expressed in bacterial expression system at 10 uM by KinomeScan method relative to control
[9] = Cmax in NOD/SCID mouse at 0.5 mg/kg, po administered as single dose by LC-MS/MS method; type: ADME, organism-based; design: dose 0.5 mg/kg, route oral; conditions: in vivo
[10] = Tmax in NOD/SCID mouse at 10 mg/kg, ip administered as single dose by LC-MS/MS method; type: ADME, organism-based; conditions: in vivo
[11] = biological target: Dual specificity protein kinase CLK1 (Mus musculus) (UniProt P22518); test: Inhibition of mouse CLK1
[12] = test system: Mus musculus; test: Toxicity in NOD/SCID mouse assessed as phenotypic changes at 0.5 mg/kg, ip administered as single dose; type: organism-based; conditions: in vivo
[13] = biological target: Receptor tyrosine-protein kinase erbB-2 (Homo sapiens) (UniProt P04626); test: Inhibition of human wild type partial length ERBB2 (K646 to V1225 residues) expressed in mammalian expression system at 10 uM by KinomeScan method relative to control
[14] = biological target: Dual specificity mitogen-activated protein kinase kinase 4 (Homo sapiens) (UniProt P45985); test: Inhibition of human wild type partial length MEK4 (S84 to D399 residues) expressed in mammalian expression system at 10 uM by KinomeScan method relative to control
[15] = biological target: Mitogen-activated protein kinase kinase kinase 4 (Homo sapiens) (UniProt Q9Y6R4); test: Inhibition of human wild type partial length MAP3K4 (G1319 to E1608 residues) expressed in bacterial expression system at 10 uM by KinomeScan method relative to control
[16] = test system: T47D; test: Cytotoxicity against human T47D cells by MTT assay; type: functional, cell-based
[17] = biological target: Tyrosine-protein kinase BTK (Homo sapiens) (UniProt Q06187); test: Inhibition of human wild type full length BTK (M1 to S659 residues) expressed in mammalian expression system at 10 uM by KinomeScan method relative to control
[18] = Tmax in NOD/SCID mouse at 10 mg/kg, ip administered twice by LC-MS/MS method; type: ADME, organism-based; conditions: in vivo
[19] = test system: MCF7; test: Cytotoxicity against human MCF7 cells at 10 uM by MTT assay; type: functional
[20] = biological target: Muscle, skeletal receptor tyrosine-protein kinase (Homo sapiens) (UniProt O15146); test: Inhibition of human wild type partial length MUSK (M553 to V869 residues) expressed in bacterial expression system at 10 uM by KinomeScan method relative to control
[21] = biological target: Mitogen-activated protein kinase 3 (Homo sapiens) (UniProt P27361); test: Inhibition of human wild type full length ERK1 (M1 to P379 residues) expressed in bacterial expression system at 10 uM by KinomeScan method relative to control
[22] = biological target: Platelet-derived growth factor receptor beta (Homo sapiens) (UniProt P09619); test: Inhibition of human wild type partial length PDGFRB (V582 to Y1009 residues) expressed in bacterial expression system at 10 uM by KinomeScan method relative to control
[23] = biological target: Tyrosine-protein kinase HCK (Homo sapiens) (UniProt P08631); test: Inhibition of human wild type full length HCK (M22 to P526 residues) expressed in bacterial expression system at 10 uM by KinomeScan method relative to control
[24] = test system: Mus musculus; test: In vivo inhibition of SRC phosphorylation at Tyr-416 residue in NOD/SCID mouse tumor xenografted with HER2-amplified human HCC1954 cells at 10 mg/kg, ip administered once daily for 18 days measured after 1 hr last dose by […]; type: functional, organism-based
[25] = biological target: Aurora kinase B/Inner centromere protein (Homo sapiens) (UniProt Q96GD4+Q9NQS7); test: Inhibition of human AURKB/INCENP; type: protein-complex assay
[26] = test system: T47D; test: Cytotoxicity against human T47D cells at 5 uM by MTT assay; type: functional
[27] = test system: MCF7; test: Cytotoxicity against human MCF7 cells at 5 uM by MTT assay; type: functional
[28] = test system: HCC1954; test: Anti-tumor activity against HER2-amplified human HCC1954 cells xenografted in NOD/SCID mouse assessed as tumor size at 10 mg/kg, ip administered once daily for 18 days measured after 1 hr last dose (reference value: 497 +/- 82 mm3); type: functional
[29] = test system: SK-BR-3; test: Cytotoxicity against human SKBR3 cells by MTT assay; type: functional, cell-based
[30] = organism: Sus scrofa; test: Inhibition of pig CK1delta/epsilon
[31] = biological target: Glycogen synthase kinase-3 (Sus scrofa) (UniProt B2LUN4+I6LNT8); test: Inhibition of pig GSK3alpha/beta using GS-1 as substrate in presence of [gamma33P]ATP after 30 mins by scintillation counting method
[32] = biological target: Tyrosine-protein kinase SYK (Homo sapiens) (UniProt P43405); test: Inhibition of human wild type partial length SYK (D354 to N635 residues) expressed in bacterial expression system at 10 uM by KinomeScan method relative to control
[33] = biological target: Serine/threonine-protein kinase 4 (Homo sapiens) (UniProt Q13043); test: Inhibition of human wild type full length MST1 (M1 to F487 residues) expressed in bacterial expression system at 10 uM by KinomeScan method relative to control
[34] = test system: Mus musculus; test: Toxicity in NOD/SCID mouse assessed as change in body weight at 10 mg/kg, ip administered once daily for 18 days measured after 1 hr last dose; type: organism-based; conditions: in vivo
[35] = AUC (0 to 24 hrs) in NOD/SCID mouse at 10 mg/kg, ip by LC-MS/MS method; type: ADME, organism-based; design: time < 24 hr, dose 10 mg/kg, route intraperitoneal; conditions: in vivo
[36] = biological target: Vascular endothelial growth factor receptor 2 (Homo sapiens) (UniProt P35968); test: Inhibition of recombinant human GST-tagged VEGFR-2 (789-end residues) transphosphorylation activity expressed in baculovirus infected Sf9 cells using poly[Glu:Tyr] (4:1) as substrate after 60 mins
Chain of Vascular endothelial growth factor receptor 2 (Homo sapiens) (P35968 whole entry): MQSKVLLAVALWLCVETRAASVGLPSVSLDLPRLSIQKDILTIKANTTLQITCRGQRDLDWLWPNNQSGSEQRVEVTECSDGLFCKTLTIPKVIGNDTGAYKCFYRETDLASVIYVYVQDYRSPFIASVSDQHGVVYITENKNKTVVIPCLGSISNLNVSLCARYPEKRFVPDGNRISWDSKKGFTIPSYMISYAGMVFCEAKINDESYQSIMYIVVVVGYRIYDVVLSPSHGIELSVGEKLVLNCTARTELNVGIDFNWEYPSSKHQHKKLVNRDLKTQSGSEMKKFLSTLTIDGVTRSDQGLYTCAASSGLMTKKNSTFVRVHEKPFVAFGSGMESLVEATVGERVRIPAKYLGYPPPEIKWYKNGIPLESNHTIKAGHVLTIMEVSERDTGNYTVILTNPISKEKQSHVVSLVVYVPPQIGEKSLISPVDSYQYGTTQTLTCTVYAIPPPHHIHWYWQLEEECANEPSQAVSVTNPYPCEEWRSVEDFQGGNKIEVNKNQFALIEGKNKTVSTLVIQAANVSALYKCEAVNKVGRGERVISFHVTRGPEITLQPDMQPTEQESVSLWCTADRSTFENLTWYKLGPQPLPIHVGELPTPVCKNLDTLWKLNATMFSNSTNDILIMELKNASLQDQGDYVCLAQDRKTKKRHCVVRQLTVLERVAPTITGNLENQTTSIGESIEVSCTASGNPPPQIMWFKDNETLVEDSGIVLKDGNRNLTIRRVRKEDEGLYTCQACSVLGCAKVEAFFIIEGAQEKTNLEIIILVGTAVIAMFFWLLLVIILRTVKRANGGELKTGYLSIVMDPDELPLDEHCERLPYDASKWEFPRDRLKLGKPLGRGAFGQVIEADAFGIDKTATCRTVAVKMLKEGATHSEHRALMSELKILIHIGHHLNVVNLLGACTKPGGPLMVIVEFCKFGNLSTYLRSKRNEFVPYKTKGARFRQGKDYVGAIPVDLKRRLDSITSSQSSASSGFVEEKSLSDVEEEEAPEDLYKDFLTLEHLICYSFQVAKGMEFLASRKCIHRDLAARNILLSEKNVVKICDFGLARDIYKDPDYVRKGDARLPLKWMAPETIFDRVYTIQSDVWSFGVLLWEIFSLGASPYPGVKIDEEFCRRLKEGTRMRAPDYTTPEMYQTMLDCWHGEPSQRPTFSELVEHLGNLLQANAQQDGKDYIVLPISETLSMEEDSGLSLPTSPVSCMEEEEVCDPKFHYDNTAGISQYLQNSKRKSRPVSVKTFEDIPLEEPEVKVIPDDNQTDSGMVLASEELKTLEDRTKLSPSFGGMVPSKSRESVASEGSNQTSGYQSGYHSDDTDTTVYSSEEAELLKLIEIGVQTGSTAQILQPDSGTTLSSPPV

Chain of Muscle, skeletal receptor tyrosine-protein kinase (Homo sapiens) (O15146 whole entry, the tested form may be a part): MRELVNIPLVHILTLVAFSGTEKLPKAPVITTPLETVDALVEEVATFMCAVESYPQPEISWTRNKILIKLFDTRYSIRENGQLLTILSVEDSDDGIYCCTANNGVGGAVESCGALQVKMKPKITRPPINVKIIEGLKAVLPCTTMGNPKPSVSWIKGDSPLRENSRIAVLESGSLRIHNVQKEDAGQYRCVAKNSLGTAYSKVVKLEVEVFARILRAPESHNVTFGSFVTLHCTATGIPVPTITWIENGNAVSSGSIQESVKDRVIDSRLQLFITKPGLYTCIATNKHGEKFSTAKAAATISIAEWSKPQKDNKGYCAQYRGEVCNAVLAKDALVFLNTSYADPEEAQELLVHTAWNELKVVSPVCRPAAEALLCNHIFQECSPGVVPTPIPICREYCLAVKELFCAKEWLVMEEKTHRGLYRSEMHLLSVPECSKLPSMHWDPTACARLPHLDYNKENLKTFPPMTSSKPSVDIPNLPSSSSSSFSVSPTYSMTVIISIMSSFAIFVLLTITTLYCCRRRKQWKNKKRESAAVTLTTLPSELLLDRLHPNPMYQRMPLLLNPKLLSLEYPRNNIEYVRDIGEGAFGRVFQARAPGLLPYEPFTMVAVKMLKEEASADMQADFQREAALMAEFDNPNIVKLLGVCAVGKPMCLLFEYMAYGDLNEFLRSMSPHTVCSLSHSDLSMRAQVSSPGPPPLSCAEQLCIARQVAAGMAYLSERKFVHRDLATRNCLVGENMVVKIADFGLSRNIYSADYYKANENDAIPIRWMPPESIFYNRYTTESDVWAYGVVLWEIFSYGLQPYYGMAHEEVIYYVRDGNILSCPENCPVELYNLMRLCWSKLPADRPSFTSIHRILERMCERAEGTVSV
Chain of Mitogen-activated protein kinase 3 (Homo sapiens) (P27361 whole entry, the tested form may be a part): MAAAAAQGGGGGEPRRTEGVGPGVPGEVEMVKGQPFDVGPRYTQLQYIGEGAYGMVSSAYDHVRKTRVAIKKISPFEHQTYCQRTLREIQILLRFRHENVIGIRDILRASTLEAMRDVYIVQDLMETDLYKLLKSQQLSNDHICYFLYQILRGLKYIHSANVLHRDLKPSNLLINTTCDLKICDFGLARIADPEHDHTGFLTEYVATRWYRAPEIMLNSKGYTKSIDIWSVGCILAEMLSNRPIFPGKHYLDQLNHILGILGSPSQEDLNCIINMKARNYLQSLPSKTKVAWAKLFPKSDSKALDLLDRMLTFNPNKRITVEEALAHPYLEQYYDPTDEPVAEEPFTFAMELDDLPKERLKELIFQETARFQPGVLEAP
Chain of Platelet-derived growth factor receptor beta (Homo sapiens) (P09619 whole entry, the tested form may be a part): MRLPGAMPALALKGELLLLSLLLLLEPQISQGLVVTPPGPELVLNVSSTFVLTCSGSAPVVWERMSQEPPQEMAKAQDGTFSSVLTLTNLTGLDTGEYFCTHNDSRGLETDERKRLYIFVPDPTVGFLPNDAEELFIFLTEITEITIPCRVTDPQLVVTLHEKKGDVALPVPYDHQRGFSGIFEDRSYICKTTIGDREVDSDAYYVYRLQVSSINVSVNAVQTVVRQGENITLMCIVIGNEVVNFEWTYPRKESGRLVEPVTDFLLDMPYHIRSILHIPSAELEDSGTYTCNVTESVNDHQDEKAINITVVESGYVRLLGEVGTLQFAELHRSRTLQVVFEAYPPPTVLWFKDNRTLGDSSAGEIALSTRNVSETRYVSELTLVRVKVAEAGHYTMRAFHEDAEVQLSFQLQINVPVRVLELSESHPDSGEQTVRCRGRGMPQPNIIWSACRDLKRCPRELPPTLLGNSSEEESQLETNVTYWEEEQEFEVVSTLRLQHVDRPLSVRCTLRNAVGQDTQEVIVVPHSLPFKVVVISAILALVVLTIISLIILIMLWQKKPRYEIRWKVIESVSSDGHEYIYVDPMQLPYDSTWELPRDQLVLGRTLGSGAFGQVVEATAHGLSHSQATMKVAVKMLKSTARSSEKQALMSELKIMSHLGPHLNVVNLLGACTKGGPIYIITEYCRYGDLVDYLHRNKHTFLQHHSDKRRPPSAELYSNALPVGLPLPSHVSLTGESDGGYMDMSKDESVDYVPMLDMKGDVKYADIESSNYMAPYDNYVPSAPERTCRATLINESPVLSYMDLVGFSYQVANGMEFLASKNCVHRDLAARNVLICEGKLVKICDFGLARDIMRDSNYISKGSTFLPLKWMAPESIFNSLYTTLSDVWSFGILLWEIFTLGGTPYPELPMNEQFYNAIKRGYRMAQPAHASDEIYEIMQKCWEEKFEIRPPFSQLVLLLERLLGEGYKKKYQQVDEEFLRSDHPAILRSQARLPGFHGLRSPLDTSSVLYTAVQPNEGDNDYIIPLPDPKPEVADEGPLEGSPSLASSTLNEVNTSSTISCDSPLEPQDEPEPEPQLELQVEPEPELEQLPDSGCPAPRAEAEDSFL
Chain of Phosphatidylinositol 4,5-bisphosphate 3-kinase catalytic subunit alpha isoform (Homo sapiens), P42336 [H1047Y] (P42336 whole entry H1047Y, the tested form may be a part, canonical isoform): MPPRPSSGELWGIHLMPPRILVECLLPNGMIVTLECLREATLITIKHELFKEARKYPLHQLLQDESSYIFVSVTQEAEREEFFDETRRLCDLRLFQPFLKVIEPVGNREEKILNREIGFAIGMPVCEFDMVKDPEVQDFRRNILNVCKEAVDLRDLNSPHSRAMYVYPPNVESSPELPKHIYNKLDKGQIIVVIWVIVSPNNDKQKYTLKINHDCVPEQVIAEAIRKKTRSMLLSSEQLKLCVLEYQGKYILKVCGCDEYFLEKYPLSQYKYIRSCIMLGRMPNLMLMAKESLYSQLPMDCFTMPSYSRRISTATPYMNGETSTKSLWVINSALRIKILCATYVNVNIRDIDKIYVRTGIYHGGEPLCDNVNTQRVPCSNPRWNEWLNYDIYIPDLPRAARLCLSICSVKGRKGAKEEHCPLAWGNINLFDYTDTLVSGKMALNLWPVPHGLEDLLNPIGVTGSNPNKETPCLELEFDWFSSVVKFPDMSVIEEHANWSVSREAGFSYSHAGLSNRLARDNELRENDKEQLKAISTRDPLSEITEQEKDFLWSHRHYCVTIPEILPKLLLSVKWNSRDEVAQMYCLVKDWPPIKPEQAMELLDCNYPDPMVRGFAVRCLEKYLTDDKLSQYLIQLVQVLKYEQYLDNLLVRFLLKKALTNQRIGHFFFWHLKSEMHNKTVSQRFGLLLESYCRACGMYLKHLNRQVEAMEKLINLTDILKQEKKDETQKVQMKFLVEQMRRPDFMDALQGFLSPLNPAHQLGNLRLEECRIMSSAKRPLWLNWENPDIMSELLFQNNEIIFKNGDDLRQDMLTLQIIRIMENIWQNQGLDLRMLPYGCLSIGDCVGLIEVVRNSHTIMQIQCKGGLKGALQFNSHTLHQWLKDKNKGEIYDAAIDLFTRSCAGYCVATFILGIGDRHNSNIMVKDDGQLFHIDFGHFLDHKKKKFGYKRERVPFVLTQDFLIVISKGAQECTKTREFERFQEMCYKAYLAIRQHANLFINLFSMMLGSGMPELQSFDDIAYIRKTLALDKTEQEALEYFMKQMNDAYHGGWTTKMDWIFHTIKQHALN

Question: With `Cc1nc2nc(Sc3ccccc3)cnc2cc1NC(=O)Nc1ccccc1` as the molecule, how does the inhibition [1] read?
Answer: 2%

Question: What about the inhibition [2] of the same molecule?
Answer: 8%

Question: What about the Tmax [3] of the same molecule?
Answer: 2 h

Question: What about the Activity [4] of the same molecule?
Answer: >50%

Question: And the Activity [5]?
Answer: >50%

Question: What about the inhibition [6] of the same molecule?
Answer: inactive

Question: And the AUC(0-t) at 8 h [7]?
Answer: 19.9 µM·h

Question: And the inhibition [8]?
Answer: 3%

Question: What about the Cmax [9] of the same molecule?
Answer: 470 nM

Question: And the Tmax [10]?
Answer: 2 h

Question: What about the inhibition [11] of the same molecule?
Answer: inactive

Question: And the Activity [12]?
Answer: Non-Toxic

Question: What about the inhibition [13] of the same molecule?
Answer: 0%

Question: What about the inhibition [14] of the same molecule?
Answer: 0%

Question: What about the inhibition [15] of the same molecule?
Answer: 16%

Question: And the pIC50 [16]?
Answer: 5.24

Question: And the inhibition [17]?
Answer: 10%

Question: What about the Tmax [18] of the same molecule?
Answer: 2 h

Question: And the Activity [19]?
Answer: >50%

Question: What about the inhibition [20] of the same molecule?
Answer: 0%

Question: And the inhibition [21]?
Answer: 11%

Question: And the inhibition [22]?
Answer: 0%

Question: What about the inhibition [23] of the same molecule?
Answer: 13%

Question: What about the inhibition [24] of the same molecule?
Answer: Active

Question: What about the inhibition [25] of the same molecule?
Answer: inactive

Question: What about the Activity [26] of the same molecule?
Answer: >50%

Question: And the Activity [27]?
Answer: >50%

Question: What about the Activity [28] of the same molecule?
Answer: 150 mm3

Question: And the pIC50 [29]?
Answer: 5.74

Question: And the inhibition [30]?
Answer: inactive

Question: What about the inhibition [31] of the same molecule?
Answer: inactive

Question: And the inhibition [32]?
Answer: 10%

Question: What about the inhibition [33] of the same molecule?
Answer: 0%

Question: And the Activity [34]?
Answer: Non-Toxic

Question: What about the AUC(0-t) at 24 h [35] of the same molecule?
Answer: 39.1 µM·h

Question: And the inhibition [36]?
Answer: inactive
